Paper PMC6502800, “Visualizing the cellular route of entry of a cystine-knot peptide with Xfect transfection reagent by electron microscopy” (Scientific Reports, 2019)

Assays:
HeLa cells [1] = test: Detergent-based cell permeabilization assay
Procedure: Figure 4 Internalized rEETI-II/Xfect is found in compartments that are resistant to detergent permeabilization. […] Cells were then incubated with PBS, 0.1% Triton X-100, 0.04% Saponin, 0.01% Saponin, or 25 μM Digitonin in PBS for 5 min at room temperature, washed and imaged. […] Mean ± SD. n = 1000 cells. Representative images from at least three independent experiments are shown. Scale bar, 20 μm.
For cell permeabilization experiments, HeLa cells were incubated with 5 μM rEETI-II-A488 with or without Xfect for 60 min, or transferrin (labeled with Alexa 555, 0.2 mg/ml) for 10 min, at 37 °C/5% CO2, washed three times with cold PBS. Cells were then fixed with 4% PFA for 20 min at room temperature, washed three times with PBS, and incubated with either PBS, or detergent containing PBS for 5 min at room temperature. Cells were washed again. […] Fluorescence images were captured on a high throughput ImageXpress Micro XL imaging system (Molecular Devices) and images were analyzed by MetaXpress 4.0. Fluorescence intensity values above a threshold defined using the DMSO-treated samples were measured and used to quantify integrated fluorescence intensity per cell or percentage of dye-positive cells. […] Cells were incubated with Hoechst 333421 (5 µg/ml in PBS) for 10 min and washed three times with PBS then imaged, analyzed as described above. […]

HeLa cells [2] = test: Uptake of cargo into cells pre-treated with Xfect
Procedure: Cells were fixed with 4% PFA and processed as described in methods. […] Values were normalized to the 6 h Xfect treated samples. Mean ± SD. n = 1000 cells. Representative images from three independent experiments are shown. Scale bar, 20 µm.
(a–d) HeLa cells were incubated with Xfect for indicated times then washed with PBS for three times and incubated with 30 nM SYTOX Red (a,b, Cy5 channel) or 200 nM YOYO-3 Iodide (c,d, Texas Red channel) for 20 min, and washed with PBS again. Cells were fixed with 4% PFA and processed as described in methods. […] Values were normalized to the 24 h Xfect treated samples. Mean ± SD. n = 1000 cells. Representative images from three independent experiments are shown. Scale bar, 20 µm.
cells.HeLa cells were incubated with Xfect for the indicated times, then washed with PBS
forthree times and incubated with 30 nM SYTOX Red (a, Cy5 channel) or 200 nM YOYO-3
Iodide (b, Texas Red channel) for 20 min, and washed with PBS again. Cells were fixed with
4% PFA and processed as described in methods. Representative images from three
independent experiments are shown. Scale bar, 20 µm. Images are normalized to saturation
atthe 24 h time point in order to show the cellular distribution of early time point samples.

Row | Molecule | internalized transferrin staining after detergent permeabilization (HeLa cells [1]) | uptake of cell impermeable dye into cells pre-treated with Xfect (HeLa cells [2]; HeLa cells pre-treated with Xfect 3 h, washed, then dye 20 min (SYTOX Red 30 nM; YOYO-3 Iodide 200 nM), fluorescence imaging) | uptake of dye into cells in the absence of Xfect preincubation (HeLa cells [2]; HeLa cells, no Xfect, dye 20 min (SYTOX Red 30 nM; YOYO-3 Iodide 200 nM), negative control)
1 | transferrin-Alexa555: transferrin labeled with Alexa 555, marker of early and recycling endosomes | resistant to detergent extraction | – | –
2 | C[n+]1c(C=CC=C2C=CN(CCC[N+](C)(C)CCC[N+](C)(C)CCCN3C=CC(=CC=Cc4oc5ccccc5[n+]4C)c4ccccc43)c3ccccc32)oc2ccccc21 [YOYO-3 Iodide] | – | observed to enter into cells | little to no uptake
